# Experimental data reported in publication PMC10227065, “Structures of Tetrahymena thermophila respiratory megacomplexes on the tubular mitochondrial cristae” (Nature Communications, 2023).
# Tests used:
# [1] = target: T1, Tt-CII (SDHA/SDHB hydrophilic head) (Tetrahymena thermophila, UniProt Q23DI3); experiment: cryo-EM structure; format: binding
# T1 construct: gene TTHERM_00047080
# [2] = target: T2, NDUA9 (Tt-CI subunit) (Tetrahymena thermophila, UniProt I7MLH2); experiment: cryo-EM structure; format: binding; settings: printed only as NDP group (PDB ligand code)
# T2 construct: gene TTHERM_00557760
# T2 sequence (I7MLH2 27-362): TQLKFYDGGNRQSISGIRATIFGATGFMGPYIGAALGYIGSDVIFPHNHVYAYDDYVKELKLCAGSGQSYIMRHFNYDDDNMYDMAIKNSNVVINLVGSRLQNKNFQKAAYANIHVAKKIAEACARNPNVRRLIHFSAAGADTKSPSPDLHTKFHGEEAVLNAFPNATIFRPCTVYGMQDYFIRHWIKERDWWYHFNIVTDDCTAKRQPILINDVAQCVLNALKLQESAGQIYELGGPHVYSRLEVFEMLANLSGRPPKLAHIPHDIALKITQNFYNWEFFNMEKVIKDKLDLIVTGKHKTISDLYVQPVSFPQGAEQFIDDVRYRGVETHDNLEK
# From the text: cryo-EM structure on NDUA9 (Tt-CI subunit) | NDP group of NDUA9 and the interfacial heme […]1
# [3] = target: T1, Tt-CII (SDHA/SDHB hydrophilic head); experiment: cyt c reduction/oxidation, […] nm; format: biochemical; settings: 5 mM malonate; 5 mM succinate, 50 uM decylubiquinone, 100 uM Tt-cyt c, 10 nM megacomplex, pH 7.4, 0.1% digitonin, room temperature
# T1 sequence (Q23DI3 1-636): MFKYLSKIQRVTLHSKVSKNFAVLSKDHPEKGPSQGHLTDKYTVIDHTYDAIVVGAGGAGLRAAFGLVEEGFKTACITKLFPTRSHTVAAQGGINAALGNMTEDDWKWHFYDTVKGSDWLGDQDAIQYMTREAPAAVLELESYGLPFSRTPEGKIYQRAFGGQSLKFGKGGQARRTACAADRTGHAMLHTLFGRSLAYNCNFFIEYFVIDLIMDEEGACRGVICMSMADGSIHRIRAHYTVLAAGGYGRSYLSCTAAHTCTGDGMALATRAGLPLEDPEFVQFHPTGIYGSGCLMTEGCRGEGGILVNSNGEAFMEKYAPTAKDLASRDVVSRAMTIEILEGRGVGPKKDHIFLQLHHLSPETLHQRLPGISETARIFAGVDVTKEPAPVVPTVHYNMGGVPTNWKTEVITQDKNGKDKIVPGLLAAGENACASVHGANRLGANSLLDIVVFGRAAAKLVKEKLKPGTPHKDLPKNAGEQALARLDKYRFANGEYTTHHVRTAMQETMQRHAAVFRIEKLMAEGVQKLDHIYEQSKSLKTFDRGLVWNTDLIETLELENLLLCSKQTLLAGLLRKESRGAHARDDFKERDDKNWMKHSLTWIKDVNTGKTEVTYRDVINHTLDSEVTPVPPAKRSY
# T1 sequence (I7M403 21-312 partner): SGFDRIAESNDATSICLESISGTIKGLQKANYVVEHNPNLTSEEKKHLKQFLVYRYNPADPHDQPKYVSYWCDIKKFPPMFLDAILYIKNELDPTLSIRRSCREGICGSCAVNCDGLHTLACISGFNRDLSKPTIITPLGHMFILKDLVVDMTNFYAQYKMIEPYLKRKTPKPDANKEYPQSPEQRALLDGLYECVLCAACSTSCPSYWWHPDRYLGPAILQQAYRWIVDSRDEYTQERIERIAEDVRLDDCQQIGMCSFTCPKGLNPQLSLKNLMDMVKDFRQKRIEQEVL
structure (smiles),measurement,setting,value
Cc1cc2nc3c(=O)[nH]c(=O)nc-3n(C[C@H](O)[C@H](O)[C@H](O)COP(=O)(O)OP(=O)(O)OC[C@H]3O[C@@H](n4cnc5c(N)ncnc54)[C@H](O)[C@@H]3O)c2cc1C [FAD],cryo-EM structure,[1],highly conserved to known CII structures with the FAD and three iron-sulfur clusters in place
NC(=O)C1=CN([C@@H]2O[C@H](COP(=O)(O)OP(=O)(O)OC[C@H]3O[C@@H](n4cnc5c(N)ncnc54)[C@H](OP(=O)(O)O)[C@@H]3O)[C@@H](O)[C@H]2O)C=CC1 [NDP],cryo-EM structure,[2],NDP group of NDUA9 and the interfacial heme c SDHTT1
O=C(O)CC(=O)O [malonate],"cyt c reduction/oxidation, 550 nm",[3],NADH and succinate-dependent activities could be inhibited by CI inhibitor rotenone and CII inhibitor malonate
